Results taken from US12397004B2, “Nasal delivery of low-dose aspirin for the treatment of neurodegenerative and lysosomal storage diseases” (Rush University Medical Center, priority 2018, dated 2025).

What was measured:
[1] = system: adoptively-transferred EAE; assay: Adoptive-transfer EAE in female SJL/J mice: clinical symptoms, grip test, rotorod after aspirin nebulization; type: in vivo; conditions: 0.2 and 0.4 mg/kg body wt/d
Description: FIG. 2A-2C. Nebulization of low-dose aspirin reduced clinical symptoms of experimental allergic encephalomyetis (EAE) in female SJL/J mice. 2A) EAE was induced in 4-5 week old female SLJ/mice by adoptive transfer of myelin basic protein (MBP) primed T cells and from 9 days post-transfer (dpt), mice were treated with different doses of aspirin once daily for nebulization. Mice (n=6 per group in two independent experiments) were scored daily. On 16 dpt (acute phase), mice were examined for grip test (2B) and rotorod (2C). Results are presented as mean±SEM of six (6) mice per group. ^ap<0.001 vs control; ^bp<0.001 vs EAE by two-samples t-tests. Oral tablets of baby aspirin with a standard dosage of 81 mg were solubilized in hot double distilled water and cooled to room temperature. This liquid formulation was made fresh every week. In mice, an aspirin dose of 1 mg/kg body wt/d aspirin is equivalent to “Baby Aspirin” (81 mg tablet per adult). A Buxco Inhalation Tower All-In-One Controller by DSI™ was used for air supply for nebulization (FIG. 1A). A whole body chamber was fitted with an Aeroneb® Ultrasonic Nebulizer (FIG. 1B) supplied with air from a Buxco bias flow pump. Mice were allowed to nebulize aspirin at doses of […] mg/kg body wt/d (solubilized in a volume of 100 μl double-distilled water/mouse) for 3 min. Therefore, control group of mice also received 100 μl water by nebulization. Experimental allergic encephalomyelitis (EAE) is an animal model of MS, the most common human demyelinating disease. RR-EAE was induced in female SJL/J mice by adoptive transfer of myelin […] (MBP) primed T cells (FIG. 2A). As expected, induction of EAE reduced grip test (FIG. 2B) and rotorod (FIG. 2C) performances of mice. Mice were then nebulized with aspirin (0.2 and 0.4 mg/kg body wt/d in a volume of 100 μl/mouse) from 9 days post-transfer (dpt) of MBP-primed T cells. The control EAE group were treated with only water via nebulization. A dose of 0.2 mg/kg body wt/d aspirin equates to approximately 16 mg per adult. Clinical symptoms were monitored every day until 38 dpt. […]

[2] = system: CD4+Foxp3+ Tregs; assay: FACS of lymph node cells of EAE mice for Foxp3 and CD4 (Tregs); type: in vivo, female SJL/J mice; conditions: 0.2 and 0.4 mg/kg body wt/d, nebulization from 9 dpt, 16 dpt
Description: FIG. 3A-3B. Nebulization of low-dose aspirin improves regulatory T cells (Tregs) in vivo in mice with adoptive transfer EAE. Lymph node cells of control, EAE (16 dpt) and low doses of aspirin-treated EAE mice (16 dpt receiving 0.2 and 0.4 mg/kg body wt/d aspirin in 100 μl water from 9 dpt via nebulization) were analyzed by fluorescence activated cell sorting (FACS) for Foxp3 and CD4 (3A). The mean fluorescence intensity (MFI) of Foxp3 in CD4+ population was calculated by using CellQuest software (3B). Data were mean±SEM of four mice per group. ^ap<0.001 vs control; ^bp<0.001 vs EAE by two-samples t-tests. Tregs are most important immunomodulatory subtype of T lymphocytes (Sakaguchi, 2005; Sakaguchi and Powrie, 2007) that are known to suppress EAE and MS. Nebulization of aspirin was further investigated to determine whether nebulization was capable of enriching Tregs in vivo in EAE mice. EAE mice receiving aspirin nebulization from 9 dpt were sacrificed on 16 dpt, followed by analysis of Tregs in lymph node cells (LNC). Foxp3 protein is currently considered as the most important marker of Tregs and by dual fluorescence-activated cell sorting (FACS) staining, we found decrease in CD4^+Foxp3^+ Tregs in LNC of EAE mice (FIG. 3A-B). However, nebulization of EAE mice with aspirin at both 0.2 and 0.4 mg/kg body wt/d doses protected CD4+Foxp3+ Tregs (FIG. 3A-B).

[3] = system: CD4+IL-17+ T cells; assay: FACS of lymph node cells of EAE mice for IL-17 and CD4 (Th17 response); type: in vivo, female SJL/J mice; conditions: 0.2 and 0.4 mg/kg body wt/d, nebulization from 9 dpt, 16 dpt
Description: FIG. 4A-4B. Nebulization of low-dose aspirin suppresses the Th17 response in vivo in mice with adoptive transfer EAE. Lymph node cells of control, EAE (16 dpt) and low doses of aspirin-treated EAE mice (16 dpt receiving 0.2 and 0.4 mg/kg body wt/d aspiring in 100 μl water from 9 dpt via nebulization) were analyzed by FACS for IL-17 and CD4 (4A). The MFI of IL-17 in CD4+ population was calculated by using CellQuest software (4B). Data were mean±SEM of four mice per group. ^ap<0.001 vs control; ^bp<0.001 vs EAE by two-samples t-tests. T helper cell 17 (Th17) cells are considered to play a more important role than Th1 cells in the disease process of EAE and MS (El-behi et al., 2010). Since aspirin nebulization enriched Tregs, aspirin nebulization was tested to determine if aspirin nebulization was capable of suppressing Th17 response in vivo in EAE mice. Th17 cells are characterized by expression of IL-17 (Shi et al., 2008). […] However, nebulization of EAE mice with aspirin led to the suppression of the CD4+IL-17+ T cell population in LNC (FIG. 4A). This is also corroborated by mean fluorescence intensity (MFI) analysis of IL-17 within the CD4+ population (FIG. […]).

[4] = system: FAD5× mouse model of AD; assay: Barnes maze, hippocampus-dependent spatial behavior in FAD5× mice; type: in vivo; conditions: 0.2 and 0.4 mg/kg body wt/d, nebulization, 30 days
Description: FIG. 5A-5E. Nebulization of low-dose aspirin protects memory in the FAD5× mouse model of AD. Six to seven-month old FAD5× mice were treated with low doses (0.2 and 0.4 mg/kg body wt/d) of aspirin via nebulization. After 30 days of treatment, hippocampus-dependent spatial behavior was monitored by Barnes maze. 5A) Representative heat maps summarizing the overall activity of mice on the apparatus recorded with a Noldus camera and visualized by Ethovision XT software. 5B) Latency and 5C) number of errors made by all groups of mice. Context-dependent hippocampal behavior was analyzed by T-maze. 5D) Number of positive turns and 5E) number of negative turns of all groups of mice on an appetitive T-maze conditioning task were manually recorded. Results are presented as mean±SEM of 5 mice per group. ^ap<0.001 vs non-Tg; ^bp<0.001 vs FAD5×; ^cp<0.01 vs non-Tg; ^dp<0.05 vs FAD5×. A Buxco Inhalation Tower All-In-One Controller by DSI™ was used for air supply for nebulization (FIG. 1A). A whole body chamber was fitted with an Aeroneb® Ultrasonic Nebulizer (FIG. 1B) supplied with air from a Buxco bias flow pump. […] Hippocampus-dependent spatial learning and cognitive behavior can be reliably monitored in the Barnes maze test (Roy et al., 2013; Roy et al., 2015).

[5] = system: FAD5× mouse model of AD; assay: T-maze, context-dependent hippocampal behavior in FAD5× mice; type: in vivo; conditions: 0.2 and 0.4 mg/kg body wt/d, nebulization, 30 days
Description: FIG. 5A-5E. Nebulization of low-dose aspirin protects memory in the FAD5× mouse model of AD. Six to seven-month old FAD5× mice were treated with low doses (0.2 and 0.4 mg/kg body wt/d) of aspirin via nebulization. After 30 days of treatment, hippocampus-dependent spatial behavior was monitored by Barnes maze. 5A) Representative heat maps summarizing the overall activity of mice on the apparatus recorded with a Noldus camera and visualized by Ethovision XT software. 5B) Latency and 5C) number of errors made by all groups of mice. Context-dependent hippocampal behavior was analyzed by T-maze. 5D) Number of positive turns and 5E) number of negative turns of all groups of mice on an appetitive T-maze conditioning task were manually recorded. Results are presented as mean±SEM of 5 mice per group. ^ap<0.001 vs non-Tg; ^bp<0.001 vs FAD5×; ^cp<0.01 vs non-Tg; ^dp<0.05 vs FAD5×. T-maze apparatus monitors context-dependent hippocampal behavior, which may be a better index to test cognition in mice. […] However, similar to that observed with Barnes maze, nebulization of low doses of aspirin improved the performance of FAD5× mice on T maze as evident by increase in positive turns (FIG. 5D) and decrease in negative turns (FIG. 5E).

[6] = system: Aβ; assay: Western blot of Aβ in hippocampal extracts of FAD5× mice (6E10 and 82E1 antibodies); type: in vivo; conditions: 0.2 and 0.4 mg/kg body weight/d, nebulization, 30 days, immunoblot
Description: FIG. 6A-6D: Nebulization of very low-dose aspirin lowers cerebral plaque load in an animal model of AD. Six-month old FAD5× transgenic mice were treated with 0.2 mg/kg body wt/d and 0.4 mg/kg body wt/d aspirin via nebulization using the Buxco Inhalation Tower. After 30 days of treatment, Aβ levels were monitored in hippocampal extracts by Western blot analysis (A & C) and densitometric analysis (B & D) using 6E10 (A & B) and 82E1 (C & D) antibodies. Actin was used as loading control. Results are presented as mean±SEM of 4 mice per group. ^ap<0.001 vs non-Tg; ^bp<0.001 vs. FAD5×. To explore whether nebulization of very low-dose aspirin was capable of reducing the amyloid load in the hippocampus, the most affected brain region in AD, of FAD5× (Tg) mice, the following experiment was performed. […] The 82E1 is known to detect both soluble and fibrillar human Aβ to a similar degree.

[7] = system: Aβ immunoreactive plaques; assay: DAB immunostaining (6E10) of hippocampal sections, plaque load in FAD5× mice; type: in vivo; conditions: 0.2 and 0.4 mg/kg body wt/d, nebulization, 30 days, 6E10 DAB staining
Description: FIG. 7A-7B: Nebulization of very low-dose aspirin lowers cerebral plaque load in an animal model of AD. Six-month old FAD5× transgenic mice were treated with 0.2 mg/kg body wt/d and 0.4 mg/kg body wt/d aspirin via nebulization using the Buxco Inhalation Tower. After 30 days of treatment, A) diaminobenzidine (DAB) staining was performed in hippocampal sections using 6E10 antibody. B) Quantification of number of plaques in the hippocampus relative to nontransgenic. Two sections (two images per section) of each of five mice per group were used in counting. All data are represented as mean±SEM. ^ap<0.001 vs non-Tg; ^bp<0.001 vs. FAD5×. Next, in order to check the amyloid deposition in the brain, hippocampal sections were labeled with 6E10 antibody by diaminobenzidine immunostaining. Parallel to the immunoblot results, there was marked abundance of AP immunoreactive plaques in the hippocampus of Tg mice (FIG. 7A-B).

[8] = system: myelin; assay: Demyelination in spinal cord of EAE mice (MBP immunostaining, Luxol fast blue); type: in vivo, female SJL/J mice; conditions: 0.2 and 0.4 mg/kg body wt/d, nebulization from onset of acute phase, MBP and LFB staining
Description: FIG. 8A-8C: Nebulization of very low-dose aspirin protects myelin in experimental autoimmune encephalomyelitis (EAE), a mouse model of multiple sclerosis. EAE was induced in female SJL/J mice (4-6 week old) by adoptive transfer of MBP-primed T cells. Mice were treated with 0.2 mg/kg body wt/d and 0.4 mg/kg body wt/d aspirin via nebulization using the Buxco Inhalation Tower from the onset of acute phase. A) Spinal cord sections were immunostained with MBP (red). B) Sections were also stained with Luxol fast blue. Digital images were collected under bright field setting using a 40× objective. Demyelination was represented quantitatively (C). Data are expressed as the mean±SEM of five different mice per group. […]. EAE is an animal model of human demyelinating disease multiple sclerosis (MS). It was determined whether aspirin nebulization decreased demyelination in mice with EAE. To examine demyelination, spinal cord sections were stained with MBP, a major component of myelin. Moreover, spinal cord sections were also stained with luxol fast blue (LFB), which reacts with myelin. As evident from MBP immunostaining (FIG. 8A) and LFB staining (FIG. 8B), there were widespread demyelination zones in the white matter in mice with EAE.

[9] = system: FAD5× mouse model of AD; conditions: oral, 2 mg/kg body wt/d; cited from earlier work
[10] = nebulization from 9 dpt, tested 16 dpt

CC(=O)Oc1ccccc1C(=O)O [aspirin, acetylsalicylic acid]
grip test activity of EAE mice [1, 10]: significantly improved | rotorod activity of EAE mice [1, 10]: significantly improved | clinical manifestations of adoptively-transferred EAE ([1]; nebulization once daily from 9 dpt, monitored until 38 dpt): strongly inhibited | CD4+Foxp3+ Tregs in lymph node cells [2]: protected | CD4+IL-17+ T cell population in lymph node cells [3]: suppression | Barnes maze errors [4]: decreased | Barnes maze latency [4]: significantly improved | T-maze negative turns [5]: decrease | T-maze positive turns [5]: increase | level of Aβ in the hippocampus, 6E10 antibody [6]: significantly reduced | plaque load in the hippocampus [7]: decreasing the plaque load | loss of myelin in the spinal cord (demyelination) [8]: prevented the loss of myelin | memory and learning [9]: protect memory and learning
